Results: a compilation of properties of binary mixtures (doi:10.1021/acs.jpcc.9b07923)

Assay: xn = mol fraction of the nth substance listed
Conditions: 100 kPa

Fc1ccccn1 + Fc1cccc[nH+]1.O=S(=O)([O-])C(F)(F)F
Conditions	electrical conductivity [S/m]
242.2 K, x1 = 0.95	0.091
242.4 K, x1 = 0.5	0.0018
242.6 K, x1 = 0.86	0.075
244.9 K, x2 = 0.01	0.083
247.7 K, x1 = 0.9	0.109
251.9 K, x1 = 0.95	0.118
252.3 K, x1 = 0.86	0.113
252.8 K, x1 = 0.5	0.0037
254.7 K, x2 = 0.01	0.102
257.7 K, x1 = 0.9	0.168
262 K, x1 = 0.95	0.353
262.5 K, x2 = 0.01	0.12
262.6 K, x1 = 0.9	0.201
262.7 K, x1 = 0.86	0.161
267.6 K, x1 = 0.86	0.187
267.6 K, x1 = 0.9	0.24
271.8 K, x1 = 0.95	0.445
272.4 K, x1 = 0.9	0.279
272.5 K, x1 = 0.86	0.229
272.6 K, x2 = 0.01	0.137
272.7 K, x1 = 0.5	0.0132
277.5 K, x1 = 0.9	0.532
277.9 K, x1 = 0.86	0.295
282.6 K, x2 = 0.01	0.156
282.9 K, x1 = 0.86	0.408
287.4 K, x1 = 0.5	0.0369
287.7 K, x1 = 0.9	0.608
287.7 K, x2 = 0.01	0.161
292.1 K, x1 = 0.95	0.596
292.2 K, x1 = 0.5	0.0485
292.6 K, x1 = 0.86	0.658
296.9 K, x1 = 0.95	0.644
297.4 K, x1 = 0.5	0.0902
297.6 K, x1 = 0.86	0.711
297.6 K, x2 = 0.01	0.189
302.3 K, x1 = 0.5	0.185
302.5 K, x2 = 0.01	0.204
303 K, x1 = 0.86	0.769
303.3 K, x1 = 0.95	0.664
